This is an account of results in patent US12577235B2, “Crystalline form of CXCR2 antagonist and application thereof” (Shenzhen Optimum Biological Technology Co., Ltd, priority 2019, dated 2026).

Data set [1] concerns rat COPD model induced by smoking combined with lipopolysaccharide. The data set can be described thus: Anti-inflammation effect in rat COPD model induced by smoking combined with lipopolysaccharide. The data set is classed as in vivo, SD rats. Particulars: Danirixin 30 mpk; crystalline form A 3-30 mpk. The procedure: Modeling: the animal model was prepared by exposing the rats to cigarette smoke once daily for 14 days. The rats were smoked for 90 min per day in 2 portions with a break of 10 min. 18 Marlboro cigarettes (with a tar content of 11 mg) were given each time. LPS was administered dropwise via airway at 200 μg/rat once weekly. The administration dropwise was performed on days 6 and 13 of smoke exposure (on the day of LPS administration dropwise, only LPS was administered dropwise for modeling without smoke exposure). • 2. Administration: an aqueous solution of 1% DMSO/20% PEG400/79% (HP-b-CD) was used as the vehicle, and the drugs were administrated intragastrically everyday at a volume of 5 mL/kg for 2 weeks. • 3. Endpoint: On day 15, pulmonary function test, sample collection, inflammatory cell count in bronchoalveolar lavage fluid, pathological analysis, and lung tissue MPO and MMP9 assay were carried out. Procedures of Pulmonary Function Test:
After the last smoking and modeling were finished, pulmonary function was tested for each group of animals on the second day, and pulmonary resistance and compliance were detected under stimulation of methacholine chloride at different doses. The animals were anesthetized by intraperitoneal injection with […] of 25% urethane. After the animals were deeply anesthetized, airway intubation was performed by separating airways, and meanwhile, jugular veins were separated. After breathing stably, the animals were put into a plethysmograph. Drug administration pipelines were inserted into the separated jugular veins. After the animals were in rest state for 1-2 min and the breathing curves were stable, then detection was started. Rats were administered with methacholine chloride at doses of 0, 0.0083, 0.025, 0.075, 0.225, 0.675 mg/kg by jugular vein intubation. The increase in airway resistance and decrease in pulmonary compliance were observed after each administration. After 1-2 min, the parameters returned to near the baseline of the previous concentration of methacholine chloride, and methacholine chloride of the next concentration was injected. After the detection was finished, subsequent alveolar lavage and sample collection were performed.
After the pulmonary function test was finished, the rats were sacrificed by cervical dislocation. After the animals were confirmed dead, the lungs were carefully separated, a lavage syringe was inserted into the main trachea and fixed with 2-0 silk thread. The right lung was ligated. 5 mL of low-temperature normal saline was slowly injected through the lavage syringe. The normal saline was slowly extracted after confirming that the normal saline was injected into the left lung. The operation was repeated twice. By the three lavages, a total of 15 mL of normal saline was injected for lavage. The obtained BALF was injected into a 15 mL centrifuge tube and preserved in a storage box at 4° C. for subsequent BALF cells counting.
After BALF was collected, the right lung which was not infused was taken off and weighted. The two upper lobes of the right lung were put into a cryopreservation tube, frozen in a freezer at −80° C. for later use. Lower lobe tissues were fixed in formalin.
1 mL of homogenously mixed BALF was added into 1 mL of a solution of 1% glacial acetic acid in normal saline. Cells were counted using a hemocytometer. The remaining lavage fluid was centrifuged at 1500 r/min for 10 min at 4° C. to give a cell mass. The cells were resuspended in 200 μL of normal saline, uniformly coated on a glass slide and stained by Wright-Giemsa stain. Macrophages, neutrophils and lymphocytes in a total of 200 cells were counted under a microscope, and the proportions of the cells was calculated. For lavage fluid collection, animals failing the lavage fluid collection were not summarized. […]

In data set [2] the test system is PPE-induced SD rat COPD model. The data set can be described thus: Therapeutic effect on PPE-induced COPD model. The class given is in vivo, SD rats. The conditions noted are these: 30 mpk intragastric daily, 4 weeks. An excerpt:
• To test the therapeutic effect of the compound on PPE-induced SD rat COPD model. Materials: • Animals: SD rats (male, 160-180 g, 6 weeks age) • Test compounds: porcine pancreatic elastase (Sigma, 0.068 U/μL); Danirixin, compound 1. • Grouping: 1) vehicle group • 2) COPD model group (porcine pancreatic elastase modeling group/solvent group) • 3) PPE+Danirixin (30 mpk) • 4) PPE+compound 1 (10 mpk) • 5) PPE+compound 1 (30 mpk) Procedures: • 1. Modeling: PPE was given retrolingually. • 2. Administration: an aqueous solution of 1% DMSO/20% PEG400/79% (HP-b-CD) was used as the vehicle, and the drugs were administrated intragastrically everyday at a volume of 2 mL/rat for 4 weeks. • 3. Endpoint: On day 29, pulmonary function test, sample collection, and inflammatory cell count in bronchoalveolar lavage fluid.
Bronchoalveolar lavage: The rats were sacrificed, and dissected at the neck. Trachea intubation was performed. 1 mL of cold […] at 4° C. was infused for 3 lavages, and the lavage fluids were combined. The combined lavage fluids were centrifuged at 1200 rpm/min for 5 min, and the supernatant was discarded. The cell suspension was collected;

In a further data set the target is T1, CXCR2 (Homo sapiens, UniProt P25025).
T1 sequence (P25025 1-360): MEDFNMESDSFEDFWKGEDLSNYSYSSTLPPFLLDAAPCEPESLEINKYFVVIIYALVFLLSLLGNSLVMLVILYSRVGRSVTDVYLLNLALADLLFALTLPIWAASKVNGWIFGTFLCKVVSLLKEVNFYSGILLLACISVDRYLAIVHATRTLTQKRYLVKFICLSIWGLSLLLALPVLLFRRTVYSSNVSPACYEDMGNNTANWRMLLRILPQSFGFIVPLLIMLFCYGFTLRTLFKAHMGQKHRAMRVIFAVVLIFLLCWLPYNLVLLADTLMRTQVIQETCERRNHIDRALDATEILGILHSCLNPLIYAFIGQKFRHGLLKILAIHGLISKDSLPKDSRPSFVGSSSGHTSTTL
The data set can be described thus: PathHunter CXCR2 β-arrestin cell assay (CXCL8 agonist, chemiluminescence). The class given is cell-based. Particulars: CXCR2 β-arrestin cells, CXCL8 at EC80. The procedure: CXCR2 β-arrestin cells (DiscoverX) of PathHunter® were cultured in standard conditions and inoculated at 20 μL/well to a 384-well white microplate. Before testing, the cells were incubated at 37° C. for an appropriate period of time. The test compound was serially 3-fold diluted in DMSO to give 8 concentrations. Shortly before testing, the serially diluted test samples were further diluted with test buffer to 5 folds of the test concentration. 5 μL of further diluted test samples were added to the cells and the cells were incubated at 37° C. for 30 min. The concentration of vehicle was 1%. 5 μL of 6×EC80 agonist (CXCL8) buffer was then added to the cells, and the cells were incubated at 37° C. for 90 min. The test signal was generated by adding 15 μL (50% v/v) of PathHunter detection mixture reagent in one portion and subsequently incubating the cells for 1 h. The chemiluminescence signal of the microplate was read by a PerkinElmer Envision™ instrument. The biological activities of the test compounds were analyzed by CBIS data analysis kit (ChemInnovation, CA), shown as IC50 values.

A short description of data set [3]: Plasma pharmacokinetic assay in rats. The data set is classed as in vivo, Lewis rats. As to the method:
In this plasma pharmacokinetic assay, 4 male Lewis rats were used and randomized into two groups, with 2 animals in each group. The animals in the first group were given 2 mg/kg of the test compound by intravenous injection and the animals in the second group were given 10 mg/kg of the test compound by intragastric administration. An aqueous solution of 1% DMSO/20% PEG400/79% (HP-b-CD) was used as the vehicle, and the resulting intravenous and intragastric formulations (adjusted to pH=2.78) were clear solutions. Blood samples were collected from saphenous veins of animals at 0.0830, 0.25, 0.5, 1, 2, 4, 6, 8 and 24 hours post-dose for the intravenous injection group, and at 0.25, 0.5, 1, 2, 4, 6, 8 and 24 hours post-dose for the intragastric administration group, with 3 samples at each time point. Plasma samples of the intragastric administration group were cryopreserved at −80° C. and thawed before LC-MS/MS sample analysis. Acetonitrile containing internal standard was added to the thawed plasma samples at a certain ratio to precipitate proteins.
The mixture was centrifuged, and the supernatant was subjected to analysis by LC-MS/MS. An API4000 or 5500 system equipped with ACQUITY UPLC BEH C18 (2.1×50 mm, 1.7 μm) column and ESI positive or negative ion source was used. Each analysis batch included standard samples with 8 concentrations. A curve of the ratio of the peak areas of the test compound to the internal standard (IS) vs. the concentration of the test compound in the plasma sample was plotted, and linear regression was performed using 1/X^2 as weighting coefficient to give a regression equation between the measured response and the concentration. Each analysis batch also included corresponding quality control samples. Data processing was performed using Phoenix 6.3 WinNonlin® to give corresponding PK parameters.

With `Cc1c(F)cccc1NC(=O)Nc1ccc(Cl)c(S(=O)(=O)[C@H]2CCCNC2)c1O` [Danirixin, reference compound], the “Anti-inflammatory effect (summary)” value in data set [1] is reported as “significant anti-inflammatory effect”. The “Count of immune inflammatory cells (neutrophils, macrophages, lymphocytes) in bronchoalveolar lavage fluid” value in data set [2] is “significantly reduced”.

Compound `O=C(Nc1ccc(Cl)c(S(=O)(=O)[C@H]2CCCNC2)c1O)N[C@@H]1CCCc2cc(C(F)(F)F)oc21` [Compound 1] registered an IC50 on CXCR2 of 22 nM. For the same compound, the half-life in data set [3] (rat, plasma, po, male Lewis rats, 10 mg/kg intragastric, read-out: Intragastric administration Half life (T1/2) (converted)) was 4.22 h. The Cmax in data set [3] (rat, plasma, po, male Lewis rats, 10 mg/kg intragastric, read-out: Intragastric administration Maximum plasma concentration (Cmax)) was determined as 3 µM. Moreover, the AUC in data set [3] (rat, plasma, po, male Lewis rats, 10 mg/kg intragastric, read-out: Intragastric administration Plasma exposure (AUC)) worked out at 31.3 µM·h. Moreover, in data set [3] (rat, plasma, male Lewis rats, 2 mg/kg intravenous, read-out: Intravenous injection Clearance (CL)), the clearance came out at 5.07 mL/min/kg. Besides, the “Pharmacokinetic properties (in words)” value in data set [3] (rats) was “good pharmacokinetic properties”.
